# Test results reported in patent US20060167086A1, “Medicinal composition” (priority 2003, published 2006).
# Assays:
# [1] = system: adult T cell leukemia/lymphoma (ATL) cells; test: Proliferation of ATL cells; format: cell-based
# [2] = system: adult T cell leukemia/lymphoma (ATL) cells; test: Apoptosis of ATL cells; format: cell-based
# NF-κB [3] = details: J. Biol. Chem. 277, 24625-24630, 2002; cited from earlier work
# [4] = background statement; cited from earlier work
# [5] = system: human breast cancer cells; test: Proliferation of human breast cancer cells in vitro and in vivo; format: cell-based; details: in a manner not depending on apoptosis
# [6] = Bioorg. Med. Chem. Lett. 10, 865-869, 2000; cited from earlier work
# [7] = system: myelocytic leukemia cells in which NF-κB is not activated; test: Proliferation of myelocytic leukemia cells; format: cell-based
# [8] = system: Hodgkin's-lymphoma cells in which NF-κB is activated; test: Proliferation of Hodgkin's-lymphoma cells; format: cell-based
# normal cells [9] = test: Apoptosis of normal cells; format: cell-based
# [10] = Model mice with induced cachexic symptoms; format: in vivo; details: administered to model mice with induced cachexic symptoms
# [11] = system: leukemia cells in which NF-κB is activated; test: Apoptosis of leukemia cells; format: cell-based
# prostatic cancer = details: Cancer Res. 2003; 63(1):107-10; cited from earlier work
# normal cells [12] = test: Proliferation of normal cells; format: cell-based
# [13] = Combination with oncotherapy that activates NF-κB; details: used in combination
# human normal leukocytes = test: Apoptosis of human normal leukocytes; format: cell-based; details: same concentration as that used in inducing apoptosis of leukemia cells
# [14] = Type II collagen-induced rheumatoid arthritis model mice; format: in vivo; details: administration to model mice of type II collagen-induced rheumatoid arthritis
# NF-κB [15] = test: NF-κB activation in ATL cells; format: cell-based
# breast cancer = details: Annual Meeting of the Japanese Cancer Association, 2002; cited from earlier work
# NF-κB [16] = test: Inhibition of NF-κB activity; format: cell-based
# C2C12 myoblast cell line = test: Relief of TNF-α inhibition of differentiation from myoblasts to muscle cells; format: cell-based, mouse; details: 6 days
# Procedure: Thus, the inventors investigated whether addition of (−)-DHM2EQ can relieve the inhibitory responses to muscle differentiation by TNF-α, using a differentiation induction system of the C2C12 myoblast cell line. Using DMEM (culture medium) containing 10% FBS a mouse skeletal myogenic cell line, C2C12 (purchased from the RIKEN cell bank) was prepared at 7.5×10^4 cells/ml. Cells were seeded in plastic 12-well plates on coverslips (1 ml/well; Matsunami Glass Ind., Ltd., Osaka, Japan). Subsequently, when cells had grown to confluence, the medium was changed to DMEM (differentiation medium) containing 0.5% heat-inactivated horse serum. Cells to be subjected to the effect of TNF-α (1 ng/ml) and/or (−)-DHMEQ (3 μg/(ml)) were supplemented with each agent at this point. After 6 days, on confirmation of the formation of multinucleated myotubes, a marker of muscle cell differentiation, the medium was removed. The control was prepared by culturing cells in a culture medium at a density such that confluency was reached exactly on day 6.
# These cells were washed twice with PBS^− (Ca^2+, Mg^2+-free PBS; 8.0 g/l NaCl, 0.2 g/l KCl, 2.3 g/l NaHPO4.12H2O, 0.2 g/l KH2PO4). […]
# Samples thus prepared were mounted on a slide and photographed at 400× magnification with a fluorescence microscope (Nikon UFX-DX; set with a 40× phase contrast objective, Ph2). […]
# [17] = system: Undifferentiated human thyroid cancer cell FRO; test: Antitumor effect in thyroid cancer model mice; format: in vivo, BALB/cnu/nu male mice; details: 10 mg/kg BW intraperitoneally every day for 10 days; FIG. 6
# Procedure: The antitumor effect of (−)-DHM2EQ on human thyroid cancer was investigated. Undifferentiated human thyroid cancer cell suspension FRO (5×10^6 cells; 1200 μl of RPMI-1640) was injected subcutaneously into the flank of 8-week-old BALB/cnu/nu male mice (Charles River, Japan). Subsequently, tumor sizes were measured with calipers every other day, and tumor volume was calculated by formula (a; minor axis of tumor)^2×(b: perpendicular diameter to a)×0.4).
# [18] = system: multiple myeloma cells line KMS-12-PE; test: Antitumor effect in myeloma model mice; format: in vivo, CB17/lcr-SCID mice; details: 8 mg/kg BW intraperitoneally every day for 14 days; FIG. 5
# Procedure: Next, the antitumor effect of (−)-DHM2EQ on multiple myeloma was investigated. The multiple myeloma cells line KMS-12-PE (Ohtsuki T. et al., Br. J. Hematol. 73, 199-204, 1989) (4×10^7 cells) was dissolved in 0.2 ml of PBS and injected subcutaneously into the left back of CB17/lcr-SCID mice to form tumors. Pieces of these tumors (5 mm^3) were implanted in 10 mice. […] Subsequently, a solution of (−)-DHM2EQ (RPMI1640 medium) was administered intraperitoneally to 5 mice at 8 mg/kg BW every day for 14 days ((−)-DHM2EQ). Another five mice in the control group were given an equal amount of solvent (Control). The diameters of tumors were measured twice a week (Tumor volume=(minor axis)^2×(major axis)×0.52).
# [19] = system: hypertrophic fat cells (from precursor fat cell line 3T3-L1); test: Apoptosis induction (TUNEL) in hypertrophic fat cells; format: cell-based
# Procedure: It is considered that diseases involving insulin resistance result from TNF-α secreted from hypertrophic fat cells, as mentioned above. Thus, to examine whether (−)-DHM2EQ can induce apoptosis of hypertrophic fat cells, the influence of (−)-DHM2EQ on the hypertrophic fat cells obtained by inducing differentiation of precursor fat cells in long-term culture was investigated. The precursor fat cell line 3T3-L1 (7.5×10^4 cells; 1 ml of DMEM+10% FBS) was plated on coverslips in 12-well plates. A few days after the cells reached confluency, the cell medium was changed to a medium containing 500 μM of 3-isobutyl-1-methylxanthine (IBMX), 1 μM of dexamethasone (Dex), and a medium containing 1 μg/ml of insulin. After culture for 3 days, this medium was changed to a media containing 1 μg/ml insulin, which was cultured for another 3 days, followed by replacement with a normal medium (DMEM containing 10% FBS). Thereafter, medium change was performed every three days continuously till day 50.
# On day 50 after differentiation induction, medium change was performed. […] After another 24 h, the medium was removed and hypertrophy fat cells were washed 3 times with 500 μl of PBS (8 g/l NaCl, 0.45 g/l NaH2PO4.2H2O, 1.28 g/l Na2HPO4) for fluorescent antibodies and fixed for 15 min at 4° C. in 500 μl of 4% paraformaldehyde. Subsequently, cells were washed three times with 500 μl of PBS for fluorescent antibodies and treated for 15 min with 0.2% BSA and 0.5% Tween-20 in PBS for fluorescent antibodies.
# Subsequently, the coverslips were washed three times with 500 μl of distilled water and then mounted on the paraffin sheet in 150-mm^2 shielded Petri dishes, cells facing upward. TUNEL solution (TdT buffer II/FITC-dUTP/TdT=45 μl/2.5 μl/2.5 μl) was dropped in 45-μl drops onto the coverslips, followed by incubation for 1 h at 37° C. Finally, the coverslips were returned to shielded 12-well plates and washed three times with 1 ml of PBS for fluorescent antibodies. Then the coverslips were removed, mounted on a slide in 50% glycerol, and observed under a fluorescence microscope.
# [20] = Body weight under high fat diet in obese type 2 diabetes model; format: in vivo; details: supplemented to high fat diet, 4 weeks, KKA^y female mice; FIG. 8
# Procedure: Four-week-old KKA^y female mice were divided into two groups: the (−)-DHM2EQ group (n=5) and the control group (n 4). A high fat diet (CRF-1; Oriental Yeast Co.) as a basal chow diet was fed ad libitum for 4 weeks to the non-supplemented group (∘: without (−)-DHM2EQ) and the (−)-DHM2EQ-administered group (●: with (−)-DHM2EQ). Body weights of animals were measured weekly. The (−)-DHM2EQ given to mice was ground to fine powder in a mortar, suspended or dissolved in a 5% CMC solution, and supplemented to the high fat diet.
compound,measurement,setting,value
"O=C(NC1=CC(=O)C2OC2C1O)c1ccccc1O (racemic) [(±)-DHM2EQ, 5,6-epoxy-4-hydroxy-3-salicyloylamino-2-cyclohexenone]",proliferation of ATL cells,[1],specifically capable of inhibiting proliferation
same,apoptosis of ATL cells,[2],capable of inducing apoptosis
same,NF-κB inhibition on a cellular level,NF-κB [3],inhibits NF-κB strongly
same,toxicity,[4],low toxicity
same,proliferation of human breast cancer cells,[5],suppresses proliferation
same,symptoms in a model mouse of rheumatism,[6],suppresses symptoms
same,proliferation of myelocytic leukemia cells,[7],does not inhibit proliferation
same,proliferation of Hodgkin's-lymphoma cells,[8],inhibits proliferation
same,apoptosis of normal cells,normal cells [9],does not induce apoptosis
same,cachexic symptoms,[10],efficacy of (±)-DHM2EQ in prevention/improvement of cachexic symptoms
same,apoptosis of leukemia cells,[11],induces apoptosis
same,growth of prostatic cancer on an organism level,prostatic cancer,strongly suppresses the growth
same,proliferation of normal cells,normal cells [12],does not inhibit proliferation
same,"effect of oncotherapy that activates NF-κB (chemotherapy, radiotherapy)",[13],enhances the effect
same,apoptosis of human normal leukocytes,human normal leukocytes,does not in the least induce apoptosis
same,arthritic symptoms,[14],efficacy of (±)-DHM2EQ in suppression of arthritic symptoms
same,NF-κB activation in ATL cells,NF-κB [15],inhibits NF-κB activation
same,growth of breast cancer on an organism level,breast cancer,strongly suppresses the growth
O=C(NC1=CC(=O)[C@H]2O[C@H]2[C@H]1O)c1ccccc1O [(−)-DHM2EQ],inhibitory effect on the NF-kappa B activity relative to (±)-DHM2EQ,NF-κB [16],several to ten or more times stronger
same,inhibition by TNF-α of differentiation induction from myoblasts to muscle cells,"C2C12 myoblast cell line; 1 to 3 μg/ml (−)-DHM2EQ with 1 ng/ml TNF-α, FIG. 9",relieves the inhibition of the differentiation induction
same,tumor growth (tumor volume) compared with the control,[17],significantly inhibits tumor growth
same,tumor growth (tumor volume) compared with the control,[18],significantly suppresses tumor growth
same,apoptosis of hypertrophic fat cells,"[19]; 10 μg/ml (−)-DHM2EQ alone, without TNF-α",did not induce apoptosis
same,apoptosis of hypertrophic fat cells,"[19]; pretreated with 10 mg/ml (−)-DHM2EQ, then stimulation with 10 ng/ml TNF-α, TUNEL, FIG. 7",induces apoptosis
same,body weight under high fat diet load,[20],suppression of body weight
TNF-α [reference compound],differentiation induction from myoblasts to muscle cells,C2C12 myoblast cell line; 1 ng/ml TNF-α,suppressed differentiation induction
same,apoptosis of hypertrophic fat cells,[19]; 10 ng/ml TNF-α alone,did not induce apoptosis
